# Assay results: PubChem BioAssay (NCI)
#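 Dose response: 5 concentrations. Exposure: 48 h. Format: 96-well plates. Endpoint: linear interpolation; highest concentration if not reached. At the GI50, growth is halved. TGI is the concentration that stops growth completely.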
# Assays:
# Experiment in all cases: growth of human tumour cells (NCI), 48 h
# [1] = system: MALME-3M melanoma
# [2] = system: HCC-2998 colon
# [3] = system: HOP-62 NSCLC
# [4] = system: HCT-116 colon
# [5] = system: OVCAR-5 ovarian
# [6] = system: KM12 colon
# [7] = system: ACHN renal
# [8] = system: PC-3 prostate
# [9] = system: UACC-62 melanoma
# [10] = system: BT-549 breast
# [11] = system: SK-OV-3 ovarian
# [12] = system: HOP-92 NSCLC
# [13] = system: MDA-MB-435
# [14] = system: M14 melanoma
# [15] = system: OVCAR-8 ovarian
# [16] = system: K-562 leukemia
# [17] = system: COLO 205 colon
# [18] = system: SF-268 CNS
# [19] = system: SF-295 CNS
# [20] = system: RXF 393 renal
# [21] = system: A549 NSCLC
# [22] = system: NCI/ADR-RES ovarian
# [23] = system: HCT-15 colon
# [24] = system: SF-539 CNS
# [25] = system: SK-MEL-2 melanoma
# [26] = system: NCI-H460 lung
# [27] = system: SK-MEL-28 melanoma
# [28] = system: DU-145 prostate
# [29] = system: EKVX NSCLC
# [30] = system: UACC-257 melanoma
# [31] = system: SK-MEL-5 melanoma
# [32] = system: OVCAR-4 ovarian
# [33] = system: MOLT-4 leukemia
# [34] = system: NCI-H226 lung
# [35] = system: U251 CNS
# [36] = system: OVCAR-3 ovarian
# [37] = system: SNB-19 CNS
# [38] = system: RPMI-8226 leukemia
# [39] = system: IGROV1 ovarian
# [40] = system: HT29 colon
# [41] = system: NCI-H23 lung
# [42] = system: 786-0 renal
# [43] = system: CCRF-CEM leukemia
# [44] = system: CAKI-1 renal
# [45] = system: SN12C renal
# [46] = system: LOX IMVI melanoma
# [47] = system: TK-10 renal
# [48] = system: HS 578T breast
# [49] = system: UO-31 renal
# [50] = system: MCF7 breast
# [51] = system: NCI-H522 lung
# [52] = system: SW-620 colon
# [53] = system: SNB-75 CNS
# [54] = system: T-47D breast
# [55] = system: HL-60(TB) leukemia
# [56] = system: A498 renal
# [57] = system: MDA-MB-231 breast
compound,measurement,setting,value
N#Cc1c(N2CCCC2)[nH]c(=O)c(C(c2c(Cl)cccc2Cl)c2c(O)c(C#N)c(N3CCCC3)[nH]c2=O)c1O,GI50,[1],19.3 µM
same,TGI,[1],36.4 µM
same,GI50,[2],12.1 µM
same,TGI,[2],25.7 µM
same,GI50,[3],21.2 µM
same,TGI,[3],49.6 µM
same,GI50,[4],14.7 µM
same,TGI,[4],40 µM
same,GI50,[5],19.2 µM
same,TGI,[5],38.3 µM
same,GI50,[6],22.6 µM
same,TGI,[6],54 µM
same,GI50,[7],16.8 µM
same,TGI,[7],34.1 µM
same,GI50,[8],14.5 µM
same,TGI,[8],28.3 µM
same,GI50,[9],4.71 µM
same,TGI,[9],20.5 µM
same,GI50,[10],2.3 µM
same,TGI,[10],6.25 µM
same,GI50,[11],0.0847 µM
same,TGI,[11],21 µM
same,GI50,[12],10.2 µM
same,TGI,[12],28.5 µM
same,GI50,[13],9.6 µM
same,TGI,[13],25.2 µM
same,GI50,[14],11.4 µM
same,TGI,[14],24 µM
same,GI50,[15],15.8 µM
same,TGI,[15],33.1 µM
same,GI50,[16],27.4 µM
same,TGI,[16],> 100 µM
same,GI50,[17],5.11 µM
same,TGI,[17],17.4 µM
same,GI50,[18],11.9 µM
same,TGI,[18],29.3 µM
same,GI50,[19],18.7 µM
same,TGI,[19],37.4 µM
same,GI50,[20],2.69 µM
same,TGI,[20],15.4 µM
same,GI50,[21],18.8 µM
same,TGI,[21],36 µM
same,GI50,[22],15.4 µM
same,TGI,[22],33.8 µM
same,GI50,[23],7.7 µM
same,TGI,[23],26.9 µM
same,GI50,[24],0.369 µM
same,TGI,[24],10.9 µM
same,GI50,[25],16.6 µM
same,TGI,[25],45.4 µM
same,GI50,[26],18.2 µM
same,TGI,[26],38.4 µM
same,GI50,[27],5.34 µM
same,TGI,[27],40.6 µM
same,GI50,[28],5.57 µM
same,TGI,[28],18.4 µM
same,GI50,[29],0.0367 µM
same,TGI,[29],17.1 µM
same,GI50,[30],12.4 µM
same,TGI,[30],26.7 µM
same,GI50,[31],0.409 µM
same,TGI,[31],13.5 µM
same,GI50,[32],17.5 µM
same,TGI,[32],33.7 µM
same,GI50,[33],> 100 µM
same,TGI,[33],> 100 µM
same,GI50,[34],10.9 µM
same,TGI,[34],24.4 µM
same,GI50,[35],13.4 µM
same,TGI,[35],95.1 µM
same,GI50,[36],3.33 µM
same,TGI,[36],14.3 µM
same,GI50,[37],4.24 µM
same,TGI,[37],18.2 µM
same,GI50,[38],2.54 µM
same,TGI,[38],18.4 µM
same,GI50,[39],19 µM
same,TGI,[39],56.5 µM
same,GI50,[40],15.8 µM
same,TGI,[40],35.5 µM
same,GI50,[41],11.6 µM
same,TGI,[41],31 µM
same,GI50,[42],4.34 µM
same,TGI,[42],> 100 µM
same,GI50,[43],1.91 µM
same,TGI,[43],5.06 µM
same,GI50,[44],10.7 µM
same,TGI,[44],24 µM
same,GI50,[45],13.6 µM
same,TGI,[45],33.9 µM
same,GI50,[46],11.6 µM
same,TGI,[46],37.2 µM
same,GI50,[47],12.4 µM
same,TGI,[47],29.6 µM
same,GI50,[48],2.75 µM
same,TGI,[48],19.1 µM
same,GI50,[49],16.1 µM
same,TGI,[49],35.9 µM
same,GI50,[50],14.2 µM
same,TGI,[50],49.8 µM
same,GI50,[51],9.74 µM
same,TGI,[51],35.1 µM
same,GI50,[52],3.91 µM
same,TGI,[52],18.4 µM
same,GI50,[53],12.5 µM
same,TGI,[53],33 µM
same,GI50,[54],3.13 µM
same,TGI,[54],13.4 µM
Nc1nc2c(c3ncncc13)C(c1cccc(C(F)(F)F)c1)Cc1ncncc1-2 (stereo not given),GI50,[55],3.44 µM
same,TGI,[55],14.1 µM
same,GI50,[1],10.2 µM
same,TGI,[1],44.7 µM
same,GI50,[2],11.2 µM
same,TGI,[2],48.7 µM
same,GI50,[3],7.41 µM
same,TGI,[3],47.2 µM
same,GI50,[4],4.85 µM
same,TGI,[4],37 µM
same,GI50,[5],11.3 µM
same,TGI,[5],31.4 µM
same,GI50,[56],3.28 µM
same,TGI,[56],8.75 µM
same,GI50,[6],4.43 µM
same,TGI,[6],35.5 µM
same,GI50,[7],7.06 µM
same,TGI,[7],41.6 µM
same,GI50,[8],4.71 µM
same,TGI,[8],> 100 µM
same,GI50,[9],3.86 µM
same,TGI,[9],17.6 µM
same,GI50,[10],4.08 µM
same,TGI,[10],21.5 µM
same,GI50,[11],5.07 µM
same,TGI,[11],> 100 µM
same,GI50,[12],6.92 µM
same,TGI,[12],57.9 µM
same,GI50,[14],2.97 µM
same,TGI,[14],10 µM
same,GI50,[15],8.08 µM
same,TGI,[15],> 100 µM
same,GI50,[16],3.74 µM
same,TGI,[16],22.8 µM
same,GI50,[17],3.26 µM
same,TGI,[17],13.8 µM
same,GI50,[18],5.94 µM
same,TGI,[18],37.7 µM
same,GI50,[19],2.99 µM
same,TGI,[19],10.7 µM
same,GI50,[20],2.96 µM
same,TGI,[20],8.81 µM
same,GI50,[21],5.45 µM
same,TGI,[21],> 100 µM
same,GI50,[22],3.48 µM
same,TGI,[22],> 100 µM
same,GI50,[23],3.57 µM
same,TGI,[23],> 100 µM
same,GI50,[24],1.98 µM
same,TGI,[24],5.97 µM
same,GI50,[25],5.36 µM
same,TGI,[25],29.7 µM
same,GI50,[26],3.96 µM
same,TGI,[26],> 100 µM
same,GI50,[27],11.4 µM
same,TGI,[27],26.9 µM
same,GI50,[28],3.78 µM
same,TGI,[28],> 100 µM
same,GI50,[29],6.18 µM
same,TGI,[29],> 100 µM
same,GI50,[30],9.56 µM
same,TGI,[30],62.1 µM
same,GI50,[31],4.88 µM
same,TGI,[31],17.7 µM
same,GI50,[32],10.8 µM
same,TGI,[32],> 100 µM
same,GI50,[33],4.78 µM
same,TGI,[33],34.9 µM
same,GI50,[57],11.1 µM
same,TGI,[57],31.3 µM
same,GI50,[34],9.61 µM
same,TGI,[34],50.1 µM
same,GI50,[35],3.69 µM
same,TGI,[35],13.6 µM
same,GI50,[36],3.03 µM
same,TGI,[36],11.4 µM
same,GI50,[37],4.88 µM
same,TGI,[37],33.2 µM
same,GI50,[38],5.33 µM
same,TGI,[38],43.8 µM
same,GI50,[39],8.06 µM
same,TGI,[39],74.9 µM
same,GI50,[40],4.2 µM
same,TGI,[40],15.9 µM
same,GI50,[41],5.17 µM
same,TGI,[41],> 100 µM
same,GI50,[42],4.43 µM
same,TGI,[42],27.4 µM
same,GI50,[43],4.28 µM
same,TGI,[43],23.3 µM
same,GI50,[44],4.29 µM
same,TGI,[44],> 100 µM
same,GI50,[45],7.66 µM
same,TGI,[45],49.2 µM
same,GI50,[46],5.36 µM
same,TGI,[46],21.1 µM
same,GI50,[47],9.05 µM
same,TGI,[47],79.4 µM
same,GI50,[48],4.71 µM
same,TGI,[48],45.9 µM
same,GI50,[49],7.22 µM
same,TGI,[49],85 µM
same,GI50,[50],2.96 µM
same,TGI,[50],> 100 µM
same,GI50,[51],4.66 µM
same,TGI,[51],26.1 µM
same,GI50,[52],4.51 µM
same,TGI,[52],> 100 µM
same,GI50,[53],3.11 µM
same,TGI,[53],43.7 µM
same,GI50,[54],4.15 µM
same,TGI,[54],82.9 µM
